From patent publication US11890288B2, “Sulfonamide or sulfinamide compound having effect of inducing BRD4 protein degradation and pharmaceutical use thereof” (MITSUBISHI TANABE PHARMA CORPORATION, priority 2020, dated 2024) come the findings set out here.

The IC50 is the concentration that gives 50% inhibition. A low value points to inhibition by little substance. A word on the DC50: it is the concentration at which degradation of the target reaches its halfway point.

The test system of series [1] is Human breast cancer MDA-MB-436 cells. Nature of the series: Cytotoxic action on MDA-MB-436 cells (WST-8, 96 hr). It is filed as cell-based. As for the experimental part: (§1) The cytotoxic action of the compound of the present invention against cancer cells that acquired resistance to conventional BRD4 protein degradation inducing agents was evaluated in vitro. In this experiment, ARV-771 (Proc Natl Acad Sci USA. volume 113, pages 7124-7129 (28 Jun. 2016)) and MZ1 (ACS Chem Biol. Volume 10, pages 1770-1777 (21 Aug. 2015)), in which a ligand for VHL and BRD4 protein inhibitor are linked, were used as a conventional BRD4 protein degradation inducing agent serving as a comparison control. Human breast cancer MDA-MB-436 cells and MDA-MB-436 cells that acquired resistance to conventional BRD4 protein degradation inducing agents (MDA-MB-436 w/o2 cells) were suspended in 10% FBS/RPMI1640, seeded in a 96 well plate and cultured at 5% CO2, 37° C. overnight. A test compound dissolved in DMSO was diluted with 10% FBS/RPMI1640 and added and the cells were further cultured for 96 hr. After culturing, the viable cell number was measured using a cell number measurement WST-8 kit (Kishida Chemical Co., Ltd.). As a control, the measurement was performed under conditions free of the test compound. The cytotoxic activity of the compound of the present invention against each cell is shown in IC50 value in Table 4. The IC50 value is a concentration of the compound showing 50% cell survival rate when the cell survival rate thereof under compound untreated condition is 100%. It was calculated from the straight line connecting the cell survival rate at two points enclosing the 50% cell survival rate and the compound concentration. In addition, the tolerance (fold) was calculated by dividing the IC50 value in MDA-MB-436 w/o2 cells by the IC50 value in MDA-MB-436 cells.

Series [2] deals with human prostate cancer LNCaP cells. Nature of the series: Cytotoxic action on LNCaP cells (WST-8, 96 hr). Type of series: cell-based. Conditions: 96 hr culture. The method in brief: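 Cells were seeded in 10% FBS/RPMI1640 and cultured overnight at 37° C, 5% CO2, then exposed to compound (DMSO stock diluted in medium) for 96 hr. Viable cell number was measured with WST-8. IC50 is the concentration giving 50% survival versus untreated cells, interpolated linearly between the two bracketing points.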
In general terms: Formazan colour is commonly taken as a measure of viable cells.

Series [3] concerns the target T1, BRD4 protein (Homo sapiens (Human), UniProt O60885). Nature of the series: BRD4 protein degradation inducing action in LNCaP cells (immunofluorescence, 6 hr). The settings on record: anti-BRD4 fluorescence intensity. Type of series: cell-based. The procedure, abridged: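 LNCaP cells in 10% FBS/RPMI1640 exposed to compound for 6 hr, fixed, permeabilized and immunostained for BRD4 with Alexa Fluor 546 secondary; fluorescence (ex 560, em 572 nm) read by imaging. DC50 = concentration giving 50% of untreated signal, interpolated linearly between the two bracketing points.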

The next series concerns MDA-MB-436 w/o2 cells. Briefly: Cytotoxic action on MDA-MB-436 w/o2 cells that acquired resistance to conventional BRD4 degraders (WST-8, 96 hr). Type of series: cell-based, human. The settings on record: for IC50: MDA-MB-436 w/o2 cells, 96 hr; for resistance: IC50 in MDA-MB-436 w/o2 cells divided by IC50 in MDA-MB-436 cells; for resistance of MDA-MB-436 w/o2 cells to the substance (in words): MDA-MB-436 w/o2 versus MDA-MB-436 cells. Here is the method: as §1

In series [4] the target is T1, BRD4 protein. Nature of the series: Inhibitory action on binding of BRD4 protein and acetylated histone H4 (TR-FRET). Conditions: BRD4-1 (GST) and acetylated histone H4 peptide, 3 hr. Here is the method:
The inhibitory action of the compound of the present invention on the binding of BRD4 protein and a ligand thereof (acetylated histone H4) was evaluated by the time-resolved fluorescence resonance energy transfer (TR-FRET) method using EPIgeneous™ Binding Domain Kit A (Cisbio), BRD4-1 (GST) (Reaction Biology Corp) and [Lys(Ac)5/8/12/16]-Histone H4(1-21)-GGK (Biotin) (Eurogentec). In this experiment, (+)-JQ1 (Nature volume 468, pages 1067-1073 (23 Dec. 2010)) known to have an inhibitory activity on the binding of BRD4 protein and acetylated histone H4 therefor was used as a positive control drug. A test compound dissolved in DMSO was diluted with attached Diluent Buffer, added to a 384 well white plate, and BRD4-1 (GST) and [Lys(Ac)5/8/12/16]-Histone H4(1-21)-GGK (Biotin) were further added. Thereafter, Streptavidin-d2 conjugate and Anti-GST-Eu^3+ Cryptate Conjugate were added and the cells were incubated at room temperature for 3 hr. The binding amount of the BRD4 protein and acetylated histone H4 was measured as the fluorescence intensity (excitation: 314 nm/emission: 620 nm and excitation: 314 nm/emission: 665 nm). […] It was calculated from the straight line connecting the degradation rate at two points enclosing the 50% fluorescence intensity and the compound concentration.
Background: In TR-FRET formats the signal depends on donor and acceptor labels being close together.

For series [5], the target named is T1, BRD4 protein. Nature of the series: BRD4 protein degradation inducing action in MDA-MB-436 w/o2 cells (Western blot, 6 hr). Conditions: MDA-MB-436 w/o2 cell. It is filed as cell-based. Here is the method:
(§2) The BRD4 protein degradation inducing action of the compound of the present invention on the cancer cells that acquired resistance to conventional BRD4 protein degradation inducing agents was evaluated in vitro. In this experiment, ARV-771 and MZ1, in which a ligand for VHL and BRD4 protein inhibitor are linked, were used as a conventional BRD4 protein degradation inducing agent serving as a comparison control. Human breast cancer MDA-MB-436 cells and MDA-MB-436 cells that acquired resistance to conventional BRD4 protein degradation inducing agents (MDA-MB-436 w/o2 cells) were suspended in 10% FBS/RPMI1640, seeded in a 6 well plate and cultured at 5% CO2, 37° C. overnight. A test compound dissolved in DMSO was diluted with 10% FBS/RPMI1640 and added and the cells were further cultured for 6 hr. After culturing, the cells were lysed in a solubilizing solution (10 mM Tris-HCl, pH 7.4, 0.1% NP-40, 0.1% sodium deoxycholate, 0.1% SDS, 0.15 M NaCl, 1 mM EDTA, 10 μg/mL aprotinin). The solution was electrophoresed and proteins in acrylamide gel were transferred to Immobilon PVDF membrane using a semi-dry transfer device. […] After immersing in a secondary antibody solution for 1 hr, the object protein on the membrane was detected using ECL Prime Western Blotting Detection System or ECL Select Western Blotting Detection System (GE Healthcare).
For orientation: Immunoblotting shows a protein as a band on a membrane.

Series [6] deals with T1, BRD4 protein. Nature of the series: BRD4 protein degradation inducing action in MDA-MB-436 cells (Western blot, 6 hr). Type of series: cell-based. The settings on record: MDA-MB-436 cell. Here is the method:
as §2

Like-named read-outs stand apart in the source and are kept apart here.

With `COC(=O)C[C@@H]1N=C(c2ccc(-c3ccc(C(=O)NCCc4ccc(S(=O)(=O)Nc5ccc(C)c6c(C#N)c[nH]c56)cc4)cc3F)cc2)c2c(sc(C)c2C)-n2c(C)nnc21` [Example 46, methyl [(6S)-4-{4′-[(2-{4-[(3-cyano-4-methyl-1H-indol-7-yl)sulfamoyl]phenyl}ethyl)carbamoyl]-2′-fluoro[1,1′-biphenyl]-4-yl}-2,3,9-trimethyl-6H-thieno[3,2-f][1,2,4]triazolo[4,3-a][1,4]diazepin-6-yl]acetate], the IC50 in series [1] (Homo sapiens) worked out at 0.2 nM; in series [2] it was 0.19 nM; in the series on MDA-MB-436 w/o2 cells (Homo sapiens), 0.26 nM. The compound further displayed a DC50 at BRD4 protein [3] of 0.11 nM. Moreover, in the series with MDA-MB-436 w/o2 cells, the resistance amounted to 1.3 fold.

Turning to `COC(=O)C[C@@H]1N=C(c2ccc(-c3ccc(C(=O)NCCc4ccc(S(=O)(=O)Nc5ccc(C)c6c(C#N)c[nH]c56)cc4)cc3)cc2)c2c(sc(C)c2C)-n2c(C)nnc21` [Example 11, methyl [(6S)-4-{4′-[(2-{4-[(3-cyano-4-methyl-1H-indol-7-yl)sulfamoyl]phenyl}ethyl)carbamoyl][1,1′-biphenyl]-4-yl}-2,3,9-trimethyl-6H-thieno[3,2-f][1,2,4]triazolo[4,3-a][1,4]diazepin-6-yl]acetate], the IC50 turned out to be 5.7 nM at BRD4 protein [4], 0.27 nM in series [1] (Homo sapiens), 0.074 nM in series [2] and 0.31 nM with MDA-MB-436 w/o2 cells (Homo sapiens). The same compound gave a DC50 at BRD4 protein [3] of 0.083 nM. This compound yielded a resistance in the series on MDA-MB-436 w/o2 cells of 1.2 fold.

For the compound `COC(=O)C[C@@H]1N=C(c2ccc(-c3ccc(C(=O)NCc4ccc(S(=O)(=O)Nc5ccc(C)c6c(C#N)c[nH]c56)cc4)nc3)cc2)c2c(sc(C)c2C)-n2c(C)nnc21` [Example 53, methyl [(6S)-4-(4-{6-[({4-[(3-cyano-4-methyl-1H-indol-7-yl)sulfamoyl]phenyl}methyl)carbamoyl]pyridin-3-yl}phenyl)-2,3,9-trimethyl-6H-thieno[3,2-f][1,2,4]triazolo[4,3-a][1,4]diazepin-6-yl]acetate], the IC50 came out at 0.21 nM in series [1] (Homo sapiens), 0.16 nM in series [2] and 0.32 nM with MDA-MB-436 w/o2 cells (Homo sapiens). Besides, the DC50 at BRD4 protein [3] came out at 0.078 nM. This compound displayed a resistance in the series on MDA-MB-436 w/o2 cells of 1.5 fold.

Turning to `Cc1ncsc1-c1ccc(CNC(=O)[C@@H]2C[C@@H](O)CN2C(=O)[C@@H](NC(=O)COCCOCCOCCNC(=O)C[C@@H]2N=C(c3ccc(Cl)cc3)c3c(sc(C)c3C)-n3c(C)nnc32)C(C)(C)C)cc1` [MZ1, reference compound], the “degradation of BRD4 protein (Western blot, FIG. 1)” value (from here on “degradation of BRD4 protein”) on BRD4 protein [5] was “did not induce degradation”. In series [1], this compound yielded an IC50 of 1900 nM. The “degradation of BRD4 protein” value at BRD4 protein [6] is “induced degradation of BRD4 protein”. Further, in the series on MDA-MB-436 w/o2 cells, the resistance is >26 fold, the IC50 is > 50000 nM and the “resistance of MDA-MB-436 w/o2 cells to the substance (in words)” value was “showed resistance”.

With `Cc1ncsc1-c1ccc([C@H](C)NC(=O)[C@@H]2C[C@@H](O)CN2C(=O)[C@@H](NC(=O)COCCCOCCNC(=O)C[C@@H]2N=C(c3ccc(Cl)cc3)c3c(sc(C)c3C)-n3c(C)nnc32)C(C)(C)C)cc1` [ARV-771, reference compound], the “degradation of BRD4 protein” value at BRD4 protein [5] is on record as “did not induce degradation”. In series [1], the 50% inhibitory concentration (IC50) was 5.6 nM. The “degradation of BRD4 protein” value at BRD4 protein [6] is “induced degradation of BRD4 protein”. For the same compound, in the series on MDA-MB-436 w/o2 cells, the resistance came to 150 fold, 860 nM corresponded to half-maximal inhibition (IC50) and the “resistance of MDA-MB-436 w/o2 cells to the substance (in words)” value is given as “showed resistance”.

`CCc1ccc(NS(=O)(=O)c2ccc(CNC(=O)c3ccc(-c4ccc(C5=N[C@@H](CC(=O)OC)c6nnc(C)n6-c6sc(C)c(C)c65)cc4)cc3)cc2)c2[nH]cc(C#N)c12` [Example 43, methyl [(6S)-4-{4′-[({4-[(3-cyano-4-ethyl-1H-indol-7-yl)sulfamoyl]phenyl}methyl)carbamoyl][1,1′-biphenyl]-4-yl}-2,3,9-trimethyl-6H-thieno[3,2-f][1,2,4]triazolo[4,3-a][1,4]diazepin-6-yl]acetate]: the IC50 worked out at 0.34 nM in series [1] (Homo sapiens), 0.23 nM in series [2] and 0.42 nM in the series on MDA-MB-436 w/o2 cells (Homo sapiens). In addition, on BRD4 protein [3], it took 0.12 nM to reach half-maximal degradation (DC50). The compound also displayed a resistance in the series on MDA-MB-436 w/o2 cells of 1.3 fold.
